Assay results from patent US20040213751A1, “Augmentation of pyrithione activity or a polyvalent metal salt of pyrithione activity by zinc-containing layered material” (priority 2003, published 2004).

Tested on: Malassezia furfur (ATCC 14521)
Assay: Minimum inhibitory concentration (MIC) of ZPT in mDixon agar, with and without augmenting material
Format: cell-based
From the text: In some cases, materials can augment the activity of antifungal actives. As used herein, the term augmentation is intended to mean enhancement of the antifungal activity of a ZPT-containing composition by the augmenting material to an extent sufficient to permit the use of a lower amount of ZPT without reducing the antifungal inhibition provided by the composition, as compared to the antifungal inhibition that is provided by an otherwise-identical ZPT-containing composition that is free of the augmenting material. Augmenting agents are generally specific to the material being augmented, forming a unique combination and often because there is a specific chemical or biological mechanism required to achieve the augmentation effect. ^1 The Minimum Inhibitory Concentration is indicative of anti-fungal efficacy. Generally, the lower the value of the composition, the better its anti-fungal efficacy, due to increased inherent ability of the anti-dandruff agent to inhibit the growth of microorganisms.
An “augmentation factor” is defined, which is the ratio of the MIC with and without an augmenting agent (at a specified concentration): [formula]
Dilutions of solubilized anti-microbial active were then added to test tubes containing molten mDixon agar. M. furfur inoculum was added to each tube of molten agar, the tube vortexed, and the contents poured into separate sterile petri dishes. […] The lowest tested dilution of anti-microbial active that yields no growth is defined as the Minimal Inhibitory Concentration (MIC).
1) Malassezia furfur was grown in a 250 ml Erlenmeyer flask containing 100 mil “mDIXON” medium at 320 rpm and 30° C. until turbid.
2) Selected dilutions were prepared using an appropriate dilution series, of the anti-microbial active or combination in solvent, which allowed the sample active to be solubilized prior to addition to the final test agar. For each concentration of the ZPT samples, the solvent was “DMSO”; for other samples, the solvent was water or “DMSO” or other suitable solvent.
3) 0.25 ml dilutions of anti-microbial active were added to test tubes containing 9.5 ml molten “mDIXON” agar (held at 45° C. in a water bath).
4) 0.25 M. furfur inoculum (adjusted to 5×10^5 cfu/ml by direct count) was added to each test tube of molten agar.
5) Each tube was vortexed, and the contents poured into separate petri dishes.
6) After the agar solidified, the plates inverted and incubated at 30° for 5 days.
7) The plates were then observed for visible M. furfur growth.

| MIC of ZPT alone (Malassezia furfur, mDixon agar, 30° for 5 days, no augmenting material) [ppm] | Compound | Augmentation Benefit (5 ppm augmenting material, effective agent has augmentation factor greater than 1) | MIC of ZPT with 5 ppm augmenting material (Malassezia furfur, mDixon agar, 30° for 5 days, 5 ppm of the named augmenting material) [ppm] | Augmentation Factor (ratio of the MIC of ZPT without and with 5 ppm augmenting material) |
| --- | --- | --- | --- | --- |
| – | Zinc Stearate | No | 8 | 1.0 |
| 8 | [O-]n1ccccc1=S.[O-]n1ccccc1=S.[Zn+2] [ZPT, zinc salt of 1-hydroxy-2-pyridinethione] | – | – | – |
